From patent publication EP0235259B1, “NOVEL TRANSDERMAL ANTI-ANGINAL PHARMACEUTICAL DOSAGE UNIT AND PROCESS FOR ITS ADMINISTRATION” (RUTGERS, THE STATE UNIVERSITY OF NEW JERSEY, priority 1985, dated 1987)
Read-outs that look alike come from different tables or passages of the source.

Test system: skin from a "hairless" mouse or human cadaver
Assay: transdermal absorption (skin permeation) of nitroglycerin from polymer matrix dosage units, procedure of Keshary and Chien
Conditions: for Enhancement Factor: Table XIV, 15% W/W nitroglycerin in DC-382 matrix
Text: Enhancing Factor is defined as the ratio of normalized permeation rate [in mcg/cm²/hr] of a dosage unit of this invention with skin permeation enhancer/the normalized permeation rate of a corresponding dosage unit without enhancer in the adhesive layer.
Pharm., 10 (6) 883-913(1984).

O=[N+]([O-])OCC(CO[N+](=O)[O-])O[N+](=O)[O-] [NITROGLYCERIN, nitroglycerin, reference compound]
Enhancement Factor (enhancers (mg/cm²): (+) menthol 0.8 + capric acid 0.8 + Methyl Salicylate 0.8): 3.36
Enhancement Factor (enhancers (mg/cm²): (+) menthol 0.8 + capric acid 0.8 + Oleyl alcohol 0.8): 5.29
Enhancement Factor (enhancers (mg/cm²): (+) menthol 0.8 + capric acid 0.8 + Oleyl alcohol 1.6): 4.61
Enhancement Factor (enhancers (mg/cm²): (+) menthol 0.8 + capric acid 0.8 + Salicylic acid 0.8): 3.47

CCCCCCCC/C=C\CCCCCCCCO [Enhancer E, Oleyl alcohol]
Enhancing Factor (0.8 mg/cm²): 1.69
Enhancing Factor (1.59 mg/cm²): 2.82
Enhancing Factor (3.18 mg/cm²): 2.65

CCCCCCCCCC(=O)O [Enhancer B, Decanoic acid]
Enhancing Factor (0.8 mg/cm²): 2.59
Enhancing Factor (1.59 mg/cm²): 4.11
Enhancing Factor (3.18 mg/cm²): 4.41

CCCCCCCCCCCCCC(=O)OCC(O)COC(=O)CCCCCCCCCCCCC (racemic) [1,3-Dimyristoyl-RAC-Glycerol]
Skin Permeation Rate Without: 34.1 ± 1.62 mcg/cm²/hr
Enhancing Factor (1.6 mg/cm²): 0.94
Skin Permeation Rate With (1.6 mg/cm²): 32.13 ± 6.94 mcg/cm²/hr

CCCCCCCCCCCCCC(=O)OCC(O)CO (racemic) [1-Monomyristoly-RAC-Glycerol]
Skin Permeation Rate With: 29.88 ± 3.84 mcg/cm²/hr
Skin Permeation Rate Without: 34.1 ± 1.62 mcg/cm²/hr

CCCCCCCCCCCCCC(=O)N(C)C [Enhancer H, Myristic acid, N,N-dimethylamide]
Enhancing Factor (0.8 mg/cm²): 1.3
Enhancing Factor (1.59 mg/cm²): 2.0
Enhancing Factor (3.18 mg/cm²): 1.6
Enhancing Factor (4.78 mg/cm²): 1.5

CCCCCCCCCC[S+](C)[O-] (centres unmarked) [Enhancer G, Decylmethyl sulfoxide]
Enhancing Factor (0.8 mg/cm²): 1.61
Enhancing Factor (1.59 mg/cm²): 1.87
Enhancing Factor (2.4 mg/cm²): 2.02
Enhancing Factor (5 mg/cm²): 1.36
Enhancing Factor (10 mg/cm²): 1.22

CCCCCCCCCCCCCC(=O)OCCC [Enhancer C, Propyl myristate]
Enhancing Factor (0.8 mg/cm²): 1.67
Enhancing Factor (1.59 mg/cm²): 1.92
Enhancing Factor (3.18 mg/cm²): 3.07
Enhancing Factor (4.78 mg/cm²): 3.41

CCCCCCCCCCCCCC(=O)OCC(CO)OC(=O)CCCCCCCCCCCCC (racemic) [1,2-Dimyristoyl-RAC-Glycerol]
Skin Permeation Rate Without: 39.4 ± 4.32 mcg/cm²/hr
Enhancing Factor (1.6 mg/cm²): 1.03
Skin Permeation Rate With (1.6 mg/cm²): 40.64 ± 4.27 mcg/cm²/hr

CCCCCCCC/C=C\CCCCCCCC(=O)OCCC [Enhancer D, Propyl oleate]
Enhancing Factor (0.8 mg/cm²): 1.22
Enhancing Factor (1.59 mg/cm²): 2.43
Enhancing Factor (3.18 mg/cm²): 3.08
Enhancing Factor (4.78 mg/cm²): 3.78

CCCCCCCCCCCCCCCC(=O)OCC(O)CO (racemic) [1-Monopalmitoyl-RAC-Glycerol]
Skin Permeation Rate Without: 34.1 ± 1.62 mcg/cm²/hr
Enhancing Factor (1.6 mg/cm²): 0.86
Skin Permeation Rate With (1.6 mg/cm²): 29.39 ± 1.76 mcg/cm²/hr
